Test system: Pseudomonas aeruginosa PAM1001
Experiment: checkerboard assay (broth microdilution): levofloxacin MIC in presence of efflux pump inhibitor
Format: cell-based
Procedure: For compounds labeled with the prefix ‘M’, potentiation effect is observed by the reduction of the minimum inhibitory concentration of levofloxacin in the presence of the experimental efflux pump inhibitor. The activity of efflux pump inhibitors (EPI) in combination with fluoroquinolones, such as levofloxacin, is assessed by the checkerboard assay (Antimicrobial Combinations. In Antibiotics in Laboratory Medicine, Ed. Victor Lorian, M.D., Fourth edition, 1996, pp 333-338) using broth microdilution method performed as recommended by the National Committee for Clinical Laboratory Standards (1997). Methods for Dilution of Antimicrobial Susceptibility Tests for Bacteria That Grow Aerobically—Fourth Edition; Approved Standard. NCCLS Document M7-A4, Vol 17 No.2). The test organism used is Pseudomonas aeruginosa PAM1001. […] The compounds tabulated below are representative of the described invention.
In these assays, multiple dilutions of two drugs, namely the EPI and levofloxacin, are being tested, alone and in combination, at concentrations equal to, above and below their respective minimal inhibitory concentrations (MICs). In the case of EPI, most of these compounds are devoid of intrinsic antimicrobial activity and are tested up to the maximum concentration of 40 μg/mL. The MIC of levofloxacin against P. aeruginosa PAM1001 is 4 μg/mL.
The EPI tested are readily soluble in water and stock solutions are prepared at a final concentration of 2 mg/mL. Stock solutions are further diluted, according to the needs of a particular assay, in Mueller Hinton Broth (MHB). Stock solution can be stored at −80° C. Quinolones are solubilized according to the instructions of the manufacturers, at a concentration of 1 mg/mL. They are then further diluted in MHB. Stock solution can be stored at −80° C.
The checkerboard assay is performed in microtiter plates. Levofloxacin is diluted in the x axis, each column containing a single concentration of levofloxacin. The EPI is diluted in the y axis, each row containing an equal concentration of EPI. The result of these manipulations is that each well of the microtiter plate contains a unique combination of concentrations of the two agents. Each EPI are tested independently.
The assay is performed in MHB with a final bacterial inoculum of 5×10^5 CFU/mL (from an early-log phase culture). Microtiter plates are incubated during 20 h at 35° C. and are read using a microtiter plate reader (Molecular Devices) at 650 nm as well as visual observation using a microtiterplate reading mirror.

Structure (SMILES) | Levofloxacin MIC Against P. aerugiuosa PAM1001 in Presence of Efflux Pump Inhibitor (EPI), Minimum Inhibitory Concentration (EPI Conc. 0 μg/mL) [µg/mL] | Levofloxacin MIC Against P. aerugiuosa PAM1001 in Presence of Efflux Pump Inhibitor (EPI), Minimum Inhibitory Concentration (EPI Conc. 0.625 μg/mL) [µg/mL] | Levofloxacin MIC Against P. aerugiuosa PAM1001 in Presence of Efflux Pump Inhibitor (EPI), Minimum Inhibitory Concentration (EPI Conc. 1.25 μg/mL) [µg/mL] | Levofloxacin MIC Against P. aerugiuosa PAM1001 in Presence of Efflux Pump Inhibitor (EPI), Minimum Inhibitory Concentration (EPI Conc. 2.5 μg/mL) [µg/mL] | Levofloxacin MIC Against P. aerugiuosa PAM1001 in Presence of Efflux Pump Inhibitor (EPI), Minimum Inhibitory Concentration (EPI Conc. 5 μg/ mL) [µg/mL] | Levofloxacin MIC Against P. aerugiuosa PAM1001 in Presence of Efflux Pump Inhibitor (EPI), Minimum Inhibitory Concentration (EPI Conc. 10 μg/mL) [µg/mL] | Levofloxacin MIC Against P. aerugiuosa PAM1001 in Presence of Efflux Pump Inhibitor (EPI), Minimum Inhibitory Concentration (EPI Conc. 20 μg/mL) [µg/mL] | Levofloxacin MIC Against P. aerugiuosa PAM1001 in Presence of Efflux Pump Inhibitor (EPI), Minimum Inhibitory Concentration (EPI Conc. 40 μg/mL) [µg/mL] | MIC (Pseudomonas aeruginosa, PAM1001, read-out: MIC of levofloxacin against P. aeruginosa PAM1001) [µg/mL]
CC(C)(C)c1ccc2ncc(NC(=O)[C@@H]3C[C@@H](OCCN)CN3)cc2c1 [Compound M92, (2S,4R)-4-(2-Aminoethyloxy)-N-(6-(1,1-dimethyl)ethyl-3-quinolyl)-2-pyrrolidinecarboxamide] | 4 | 4 | 4 | 4 | 4 | 2 | 0.06 | 0.008 | –
NCC(=O)N[C@H]1CN[C@@H](C(=O)N[C@H](Cc2ccc(F)cc2)C(=O)Nc2cnc3ccccc3c2)C1 [Compound M20, (2R,4R)-4-(2-Aminoacetamideo)-N-[(1R)-2-(4-fluorophenyl)-1-(3-quinolylcarbamoyl)ethyl]-2-pyrrolidinecarboxamide] | 4 | 4 | 4 | 4 | 2 | 0.50 | 0.125 | 0.015 | –
CC(C)C[C@@H](NC(=O)[C@H]1C[C@H](CN)CN1)C(=O)Nc1cnc2ccccc2c1 [Compound M34, (2R,4R)-4-(Aminomethyl)-N-[(1R)-3-methyl-1-(3-quinolylcarbamoly)butyl]-2-pyrrolidinecarboxamide] | 4 | 4 | 4 | 4 | 4 | 2 | 1 | 0.5 | –
C[C@H]1COc2c(N3CCN(C)CC3)c(F)cc3c(=O)c(C(=O)O)cn1c23 [levofloxacin, reference compound] | – | – | – | – | – | – | – | – | 4
CCc1ccc2ncc(NC(=O)[C@@H](CCc3ccccc3)NC(=O)[C@H]3C[C@H](CN)CN3)cc2c1 [Compound M14, (2R,4R)-4-(Aminomethyl)-N-[(1R)-3-phenyl-1-(6-ethyl-3-quiolylcarbamoyl)propyl]-2-pyrrolidinecarboxamide] | 4 | 4 | 4 | 2 | 0.03 | 0.03 | 0.03 | – | –
NCC(=O)N[C@H]1CN[C@H](C(=O)N[C@H](Cc2ccc(F)cc2)C(=O)Nc2cnc3ccccc3c2)C1 [Compound M21, (2S,4R)-4-(2-Aminoacetamido)-N-[(1R)-2-(4-fluorophenyl)-1-(3-quinolylcarbamoyl)ethyl]-2-pyrrolidnecarboxamide] | 4 | 4 | 4 | 2 | 2 | 0.25 | 0.06 | 0.015 | –
NC[C@@H]1CN[C@@H](CO[C@H](CCc2ccccc2)C(=O)Nc2cnc3ccccc3c2)C1 [Compound M70, (2R,4R)-4-(Amiomethyl)-2-[((1R)-3-phenyl-1-(3-quiolylcarbamoyl)propyl)oxymethyl]pyrrolidie] | 4 | 4 | 2 | 1 | 1 | 0.125 | 0.125 | 0.06 | –
NC[C@@H]1CN[C@@H](C(=O)N[C@H](CCc2ccccc2)C(=O)Nc2ccc3ncccc3c2)C1 [Compound M29, (2R,4R)-4-(Aminomethyl)-N-[(1R)-3-pheyl-1-(6-quinolylcarbamoyl)propyl]-2-pyrrolidinecarboxamide] | 4 | 4 | 4 | 2 | 1 | 0.25 | 0.06 | 0.03 | –
N=C(N)N[C@H]1CN[C@H](C(=O)N[C@H](CCc2ccccc2)C(=O)Nc2cnc3ccccc3c2)C1 [Compound M95, (2S,4R)-4-(Guanadinyl)-N-[(1R)-3-phenyl-1-(3-quinolylcarbamoyl)propyl]-2-pyrrolidinecarboxamide] | 4 | 4 | 4 | 4 | 4 | 4 | 0.03 | 0.015 | –
NCC(=O)N[C@H]1CN[C@H](c2nc3ccccc3n2CCc2ccccc2)C1 [Compound M75, (2S,4R)-4-(2-Aminoacetamido)-2-(1-(2-phenyl)ethyl-2-benzimidazolyl)pyrrolidine] | 4 | 4 | 4 | 4 | 4 | 4 | 1 | 0.03 | –

Reference: patent US6399629B1, “Efflux pump inhibitors” (priority 1998, dated 2002)
